Data: US20200397852A1, “DOSING REGIMENS FOR CELIAC DISEASE” (ImmusanT, Inc., priority 2017, published 2020)
Read-outs that look alike come from different tables or passages of the source. Where a SMILES comes first, the peptide text is derived from it. [ ]: non-standard residue; d: D form. pGlu = O=C1CC[C@@H](C(=O)O)N1

What was measured:
[1] = Plasma concentrations of Nexvax2 peptides (UHPLC-MS/MS), pre-treatment and 45 minutes post-treatment; type: in vivo, human; details: 45 minutes after treatment at levels above 300 μg; almost all participants; LLOQ 2 ng/mL
Protocol: • Weekly Gastrointestinal Symptom Rating Scale (GSRS) scores, and relative change in plasma cytokine levels 4 hours after 150 microgram and higher doses. Plasma concentrations pre- and 45 min post-dose, and villous height to crypt depth ratio (VH:CrD) in 2nd part duodenal biopsies were assessed in Cohort 3.
Pharmacodynamics assessments included a 38plex assay to profile cytokine and chemokine concentrations in plasma before and up to 10 hours post-treatment at visits corresponding to administration of Nexvax2 at the previously determined maximum tolerated dose (150 μg) and at each of the higher dose levels. The percentage of leukocytes in whole blood that corresponded to T cells or helper, cytotoxic, regulatory, or activated (CCR6-positive) T cell subsets was estimated using epigenetic cell counting before and after dosing during the treatment period at times indicated. Pharmacokinetics of the three constituent peptides in Nexvax2 were assessed pre-treatment and 45 minutes post-treatment in cohort 3 at visits corresponding to dose levels 300 μg and above. Serum levels of anti-Nexvax2 antibodies were also assessed in cohort 3 at times shown. A four-week observational period followed the end of treatment visit.
Pharmacokinetics of Nexvax2 peptides was summarised by dose level and presented as mean (95% CI) plasma concentrations; correlation coefficients were used to compare the plasma concentrations of the Nexvax2 peptides. […] Data from cohorts 1 and 2 were analysed separately according to the Nexvax2 starting dose levels of 3 μg or 30 μg. […]
Blood was collected 30 minutes before and 45 minutes after study drug administration. […] Charles River Laboratories Ashland, LLC (Ashland, Ohio, USA) measured the concentrations of NPL001, NPL002, and NPL003. […] Reconstituted sample extracts were analysed with a UHPLC-MS/MS assay using a Waters Acquity® UPLC Peptide BEH C18 Column, 300 Å, 1.7-μm particle-size, 2.1×50 mm column (Waters Corporation, Milford, Mass., USA). […]

[2] = pH 7
[3] = Solubility in normal saline at pH 7

Row | SMILES | Plasma concentration versus limit of quantification [1] | solubility [2] [mg/mL] | solubility [3] [mg/mL]
1 | CC(C)C[C@H](NC(=O)[C@@H]1CCC(=O)N1)C(=O)N[C@@H](CCC(N)=O)C(=O)N1CCC[C@H]1C(=O)N[C@@H](Cc1ccccc1)C(=O)N1CCC[C@H]1C(=O)N[C@@H](CCC(N)=O)C(=O)N1CCC[C@H]1C(=O)N[C@@H](CCC(=O)O)C(=O)N[C@@H](CC(C)C)C(=O)N1CCC[C@H]1C(=O)N[C@@H](Cc1ccc(O)cc1)C(=O)N1CCC[C@H]1C(=O)N[C@@H](CCC(N)=O)C(=O)N1CCC[C@H]1C(=O)N[C@@H](CCC(N)=O)C(N)=O [NPL001, (pE)LQPFPQPELPYPQPQ-NH2] ([pGlu]LQPFPQPELPYPQPQ-NH2) | above the limit of quantification | > 50 | –
2 | NC(=O)CC[C@H](NC(=O)[C@H](Cc1c[nH]c2ccccc12)NC(=O)[C@@H]1CCCN1C(=O)[C@H](Cc1ccccc1)NC(=O)[C@@H]1CCCN1C(=O)[C@H](CCC(N)=O)NC(=O)[C@H](CCC(=O)O)NC(=O)[C@@H]1CCCN1C(=O)[C@H](CCC(N)=O)NC(=O)[C@@H]1CCCN1C(=O)[C@H](Cc1ccccc1)NC(=O)[C@@H]1CCCN1C(=O)[C@H](CCC(N)=O)NC(=O)[C@@H]1CCC(=O)N1)C(=O)N1CCC[C@H]1C(N)=O [NPL002, (pE)QPFPQPEQPFPWQP-NH2] ([pGlu]QPFPQPEQPFPWQP-NH2) | above the limit of quantification | – | ≤ 25
3 | CC[C@H](C)[C@H](NC(=O)[C@@H]1CCCN1C(=O)[C@H](CCC(N)=O)NC(=O)[C@H](CCC(=O)O)NC(=O)[C@@H]1CCCN1C(=O)[C@@H]1CCC(=O)N1)C(=O)N1CCC[C@H]1C(=O)N[C@@H](CCC(=O)O)C(=O)N[C@@H](CCC(N)=O)C(=O)N1CCC[C@H]1C(=O)N[C@@H](CCC(N)=O)C(=O)N1CCC[C@H]1C(=O)N[C@@H](Cc1ccc(O)cc1)C(=O)N1CCC[C@H]1C(=O)N[C@@H](CCC(N)=O)C(=O)N[C@@H](CCC(N)=O)C(N)=O [NPL003] | above the limit of quantification | – | > 50
